ChEMBL document CHEMBL3045308, “Design and synthesis of novel pyrethriods containing eugenol moiety” (2012)

Columns and labels:
Format in all cases: functional
Culex quinquefasciatus [1] = assay: Insecticidal activity against Culex quinquefasciatus assessed as contact mortality at 0.025 mg/ml at 4 hr by standard immersion method relative to control
Culex quinquefasciatus [2] = assay: Insecticidal activity against Culex quinquefasciatus assessed as contact mortality at 0.025 mg/ml at 12 hr by standard immersion method relative to control
Culex quinquefasciatus [3] = assay: Insecticidal activity against Culex quinquefasciatus assessed as contact mortality at 0.025 mg/ml at 1 hr by standard immersion method relative to control
Culex quinquefasciatus [4] = assay: Insecticidal activity against Culex quinquefasciatus assessed as contact mortality at 0.025 mg/ml at 24 hr by standard immersion method relative to control

Row | SMILES | mortality at 25 µg/mL (Culex quinquefasciatus [1]) | mortality at 25 µg/mL (Culex quinquefasciatus [2]) | mortality at 25 µg/mL (Culex quinquefasciatus [3]) | mortality at 25 µg/mL (Culex quinquefasciatus [4])
1 | C=CC(OC(=O)C(c1ccc(Cl)cc1)C(C)C)c1ccc(OC(C)=O)c(OC)c1 (centres undefined) | 25% | 47% | 14% | 85%
2 | C=CC(OC(=O)C(c1ccc(Cl)cc1)C(C)C)c1ccc(OCC)c(OC)c1 (centres undefined) | 23% | 42% | 10% | 96%
3 | C=CC(OC(=O)C1C(C=C(C)C)C1(C)C)c1ccc(OC(C)=O)c(OC)c1 (centres undefined) | 25% | 34% | 10% | 88%
4 | C=CC(OC(=O)C1C(C=C(C)C)C1(C)C)c1ccc(OCC)c(OC)c1 (centres undefined) | 22% | 40% | 15% | 97%
5 | C=CCC1=C(C)C(OC(=O)C2C(C=C(C)C)C2(C)C)CC1=O (centres undefined) [Allethrin] | 20% | 33% | 12% | 85%
6 | CC(C)C(C(=O)OC(C#N)c1cccc(Oc2ccccc2)c1)c1ccc(Cl)cc1 (centres undefined) [FENVALERATE] | 18% | 40% | 10% | 88%
